Values of other authors, collected in patent US20040248932A1, “Use of aryl- and heteroaryl-substituted tetrahydroisoquinolines in the treatment of chronic and neuropathic pain, migraine headaches, and urge, stress and mixed urinary incontinence” (priority 2002, published 2004).

Settings: nocturnal enuresis, following treatment

In the case of `CN(C)CCCN1c2ccccc2CCc2ccccc21` [imipramine, Imipramine], the “further patients in whom improvements can be seen” value is listed as 15-20% and the “patients in whom enuresis can be cured” value is listed as “over 50%”.
